What all share (type): physicochemical
The nature of data set [1]: Hue of colored solution, visual observation. To be noted: 0.01% by mass normal decane solution, visually observed. Here is the method: (§1) A methine dye (the above-described exemplary compounds 5, 15, and 23 shown in Table 1 below were prepared) and normal decane (n-decane) which is an organic solvent were mixed. In this way, three kinds of 0.01% by mass normal decane solutions (colored compositions) each colored with a methine dye were prepared.
(§2) With regard to each of the colored solutions thus prepared, the hue, absorption maximum wavelength (λmax), absorbance (abs), and absorption coefficient (∈) were measured and evaluated according to the methods described below. Further, with regard to each of the dyes described below, the solubility (% by mass) with respect to normal hexane (n-hexane) was measured and evaluated according to the method described below.
(1) Hue Each of the colored solutions (colored compositions) was visually observed, and the hue thereof was judged.

The nature of data set [2]: Absorption maximum wavelength, absorbance and absorption coefficient of colored solution (visible absorptiometer). The conditions noted are these: 0.01% by mass normal decane solution. Here is the method: as §1, §2
(2) Absorption Maximum Wavelength, Absorbance, and Absorption Coefficient
With regard to the colored solutions (colored compositions), the absorption maximum wavelength (λmax) and the absorbance were measured using a visible absorptiometer (trade name: UV-1800PC, manufactured by Shimadzu Corp.), and the absorption coefficient (∈) was calculated based on the Lambert-Beer law.

The nature of data set [3]: Solubility with respect to hexane. Here is the method: (3) Solubility with Respect to Hexane
The solubility of each methine dye with respect to normal hexane (n-hexane) which is a nonpolar solvent was measured in a manner as described below.
The dye was dissolved in normal hexane heated to 50° C. to prepare a saturated solution. Thereafter, the saturated solution thus obtained was left for one hour under an environment of 25° C. and 0.1 MPa.

The structures appear in SMILES notation.

Consider `CCCCCCC(Oc1ccc(C(C)(C)CC)cc1C(C)(C)CC)C(=O)NCC(C)c1nc2/c(=C\c3c(C)nn4nc(C(C)CNC(=O)C(CCCCCC)Oc5ccc(C(C)(C)CC)cc5C(C)(C)CC)[nH]c34)c(C)nn2n1` (stereo not drawn) [Exemplary compound 5], for which the Color of solution entry in data set [1] is “yellow”. In data set [2], the “Absorbance (abs)” value was 0.525 and the “Absorption maximum wavelength (λmax)” value was 441 nm. The “Absorption coefficient (ε)” value in data set [2] (calculated based on the Lambert-Beer law) is on record as 3.20 × 10^4. The “solubility with respect to hexane (in words)” value in data set [3] (hexane, a hydrocarbon solvent) is listed as “high solubility”. The “Solubility in hexane (%)” value in data set [3] (n-hexane, 25° C. and 0.1 MPa, % by mass) is on record as 40 or more %.

The record behind these values is US9335538B2, “Electrowetting display device and dye composition for electrowetting display” (FUJIFILM CORPORATION, priority 2012, dated 2016).
